Experimental data from patent publication US20070154567A1, “Use of mercury to treat cancer” (priority 2006, published 2007).

System: apocrine gland adenocarcinoma, metastatic to lymph node
Test: Oral inorganic mercury (II) treatment of a pet Labrador Retriever after surgical removal of the lump: blood data and clinical follow-up
Format: in vivo, dog
Set-up: MCV / MCH / MCHC / Neutrophils, absolute / Bands / Lymphocytes, absolute / Monocytes, absolute / Eosinophils, absolute / Basophils, absolute: unit not given here
Method: A 7 years old, 106 lbs male Labrador Retriever, was diagnosed with apocrine gland adenocarcinoma, metastatic to lymph node. The lump on the neck was surgically removed and biopsy analysis was performed.
The owner chose not to pursue chemo- and radiation therapies. Instead, the dog undertook a full course of inorganic mercury (II) treatment. The treatment consisted of total of 150 days including three 30-day treatment courses and two 30-day interval periods between courses. The formulation contained 1 mM mercury acetate in 20 mM sodium acetate buffer, pH 4.5, with 100 mM sucrose and 150 mM sodium chloride additives. The formulation was introduced orally to the pet three times a day 1 hour before taking food at 0.5 micromole Hg^2+/kg/day.
The blood data at Day 175 were normal (see Table 1).

CC(=O)[O-].CC(=O)[O-].[Hg+2] [inorganic mercury (II), mercury acetate]
health of the dog (13 months after completing the treatment): continues to be healthy | ALT (SGPT) (Day 175): 52 U/L | AST (SGOT) (Day 175): 29 U/L | Albumin (Day 175): 3.9 g/dL | Albumin/Globulin Ratio (Day 175): 1.1 | Alkaline Phosphatase (ALP) (Day 175): 94 U/L | BUN/Creatinine Ratio (Day 175): 17 | Bands (Day 175): 0 | Basophils, absolute (Day 175): 0 | CPK (Day 175): 267 U/L | Calcium (Day 175): 10.3 mg/dL | Chloride (Day 175): 115 mE/L | Cholesterol (Day 175): 322 mg/dL | Creatinine (Day 175): 1.2 mg/dL | Eosinophils, (%) (Day 175): 5% | Eosinophils, absolute (Day 175): 445 | Globulin (Day 175): 3.4 g/dL | Glucose (Day 175): 105 mg/dL | Hematocrit (Day 175): 53.7% | Hemoglobin (Day 175): 17.7 g/dL | Lymphocytes, (%) (Day 175): 31% | Lymphocytes, absolute (Day 175): 2759 | MCH (Day 175): 21.9 | MCHC (Day 175): 33.0 | MCV (Day 175): 66 | Monocytes, (%) (Day 175): 4% | Monocytes, absolute (Day 175): 356 | Neutrophils, (%) (Day 175): 60% | Neutrophils, absolute (Day 175): 5340 | Phosphorus (Day 175): 4.6 mg/dL | Platelet count (Day 175): 294 10^3/microl | Potassium (Day 175): 5.1 mE/L | RBC (Day 175): 8.1 10^6/microl | Sodium (Day 175): 151 mE/L | Total Billirubin (Day 175): 0.2 mg/dL | Total Protein (Day 175): 7.3 g/dL | Urea Nitrogen (Day 175): 20 mg/dL | WBC (Day 175): 8.9 10^3/microl | blood data (Day 175): normal | metastases on chest x-ray (Day 356, owner's notes): no metastases | metastasis or new mass growth in abdominal, lymph nodes or chest (post treatment evaluation by oncologist and veterinarian, X-rays and ultrasound): no evidence of metastasis or new mass growth
